The record followed here is US8268836B2, “Compound useful as a c-Met inhibitor” (Eli Lilly and Company, priority 2010, dated 2012).

pEC50, pIC50: −log10 of the molar value.

One may read the pIC50 as −log10 of the IC50, conventionally taken in molar units. By ED50 is commonly meant the dose that gives a 50% effect, or the effect in half of the subjects. Lower therefore signals greater potency.

Assay [1] addresses T1, Met (pY1349) in NCl-H460 cells (Homo sapiens, UniProt P08581).
T1 construct: host or cells: NCI-H460
In words: HGF stimulated Met (pY1349) NCI-H460 cell-based ELISA. The following applies: HGF 100 ng/mL stimulated NCI-H460 cells; read-out: relative IC50, H460 assay (c-Met phosphorylation). The procedure: NCl—H460 cells (purchased from ATCC) are cultured in RPMI 1640 media (Invitrogen) supplemented with 10% Fetal Bovine Serum (FBS) and plated (prior to becoming 70% confluent) in 96-well flat-bottom plates at a density of 20,000 cells per well in 80 μL volume. The cells are then incubated overnight in a cell culture incubator (5% CO2, 95% Relative Humidity (RH) and 37° C.) and allowed to attach to the plate. The following morning the cells are washed with 2 volumes of a Reduced Serum Media (RSM, RPMI 1640 media supplemented with 0.5% FBS). After removal of the last wash, 80 μL of RSM is added to each well of the cell plates. The cell plates are incubated for 2.5 h in a cell culture incubator, and then dosed with compounds. Compound inhibitors are first solubilized at 10 mM in 100% DMSO and then diluted to 100 μM with 2% DMSO RSM. […] After 1 h capture (at RT) the MSD® plate wells are washed with 1× Tris Wash Buffer, and then 150 μL of 1× Read Buffer T (with surfactant, MSD®) is added. Immediately after the addition of the Read Buffer, the plates are analyzed with a SECTOR 6000 MSD® Imager plate reader. Relative IC50 values are determined using MSD activity units by calculating percent inhibition with respect to on-plate “MIN” and “MAX” controls and then fitting the percent inhibition values and ten-point dose response data to a four-parameter logistic equation.

In assay [2] the target is T2, human c-Met (phospho-c-Met in S114 tumors) (Homo sapiens, UniProt P08581).
T2 construct: expressed in transfected cells; host or cells: S114 cells grown as subcutaneous tumors in athymic nude mice
In words: c-Met in vivo target inhibition (IVTI) assay, S114 tumors in nude mice. Details: species or system mouse. The protocol: S114 cells (over-expressing both human HGF and human c-Met) are cultured in a growth media (Dulbecco's Modified Eagle Medium) supplemented with 10% fetal calf serum and expanded. Cells are harvested and washed twice with phosphate buffered saline and 2×10^6 cells are mixed with equal volume of BD Matrigel™ matrix (BD Bioscience, Franklin, N.J.), and injected subcutaneously into the flank of nude mice (athymic nude, from Harlan, Indianapolis, Ind.). At day 8 after implant, compounds (formulated in 10% acacia or 1% carboxymethylcellulose/0.5% sodium lauryl sulfate/0.05% antifoam as suspension) are administered to animals by oral gavage at 50 mg/kg. Animals are sacrificed at 2 h post dose, and tumors are harvested and stored frozen until needed.
Frozen tumors are pulverized using motar-pestel. The pulverized tissues are transferred to a tube containing Lysing Matrix D beads (MP Biomedicals, Solon, Ohio) and 600 μL lysis buffer (RIPA buffer, containing 50 mM Tris-HCl, pH 7.4, 150 mM NaCl, 1% NP-40, 0.5% sodium deoxycholate, 0.1% SDS, from Boston Bioproducts, Phosphatase Inhibitors I and II and Protease Inhibitor (Sigma, St. Louis, Mo.)). A FastPrep® Cell Disrupter (MP Biomedicals, Inc.) is used to disrupt the tissue and lyse the cells. Lysates are passed through a 20 gauge needle and transferred to a clean tube. Protein concentration is determined by Bradford method known to one of skill in the art.
Tumor lysates are loaded onto MSD® phosphor-Met ELISA plates and phosphor-c-Met level is determined using the same protocol as H460 cell-based ELISA. […] The TEC50 for example 1 is 0.18 μM with a 95% confidence interval bounded by 0.13 μM and 0.23 μM.
In IVTI studies, each compound is administered orally and formulated in 10% w/v acacia. Mouse blood samples are collected with anti-coagulant (EDTA-purple top Vacutainer tube) post-dose using cardiac puncture techniques. Tubes are inverted for 3-5 times and are placed on ice until centrifugation at 3000 RPM (1800×g) for 10 min at 4° C. to obtain plasma. Aliquots of plasma are pipetted and stored in a clean 96 well plate. Plasma samples are stored immediately at −80° C. Shipments of plasma samples are packed in dry ice and samples are frozen at −80° C. until analysis.

T2 sequence (P08581 25-1390): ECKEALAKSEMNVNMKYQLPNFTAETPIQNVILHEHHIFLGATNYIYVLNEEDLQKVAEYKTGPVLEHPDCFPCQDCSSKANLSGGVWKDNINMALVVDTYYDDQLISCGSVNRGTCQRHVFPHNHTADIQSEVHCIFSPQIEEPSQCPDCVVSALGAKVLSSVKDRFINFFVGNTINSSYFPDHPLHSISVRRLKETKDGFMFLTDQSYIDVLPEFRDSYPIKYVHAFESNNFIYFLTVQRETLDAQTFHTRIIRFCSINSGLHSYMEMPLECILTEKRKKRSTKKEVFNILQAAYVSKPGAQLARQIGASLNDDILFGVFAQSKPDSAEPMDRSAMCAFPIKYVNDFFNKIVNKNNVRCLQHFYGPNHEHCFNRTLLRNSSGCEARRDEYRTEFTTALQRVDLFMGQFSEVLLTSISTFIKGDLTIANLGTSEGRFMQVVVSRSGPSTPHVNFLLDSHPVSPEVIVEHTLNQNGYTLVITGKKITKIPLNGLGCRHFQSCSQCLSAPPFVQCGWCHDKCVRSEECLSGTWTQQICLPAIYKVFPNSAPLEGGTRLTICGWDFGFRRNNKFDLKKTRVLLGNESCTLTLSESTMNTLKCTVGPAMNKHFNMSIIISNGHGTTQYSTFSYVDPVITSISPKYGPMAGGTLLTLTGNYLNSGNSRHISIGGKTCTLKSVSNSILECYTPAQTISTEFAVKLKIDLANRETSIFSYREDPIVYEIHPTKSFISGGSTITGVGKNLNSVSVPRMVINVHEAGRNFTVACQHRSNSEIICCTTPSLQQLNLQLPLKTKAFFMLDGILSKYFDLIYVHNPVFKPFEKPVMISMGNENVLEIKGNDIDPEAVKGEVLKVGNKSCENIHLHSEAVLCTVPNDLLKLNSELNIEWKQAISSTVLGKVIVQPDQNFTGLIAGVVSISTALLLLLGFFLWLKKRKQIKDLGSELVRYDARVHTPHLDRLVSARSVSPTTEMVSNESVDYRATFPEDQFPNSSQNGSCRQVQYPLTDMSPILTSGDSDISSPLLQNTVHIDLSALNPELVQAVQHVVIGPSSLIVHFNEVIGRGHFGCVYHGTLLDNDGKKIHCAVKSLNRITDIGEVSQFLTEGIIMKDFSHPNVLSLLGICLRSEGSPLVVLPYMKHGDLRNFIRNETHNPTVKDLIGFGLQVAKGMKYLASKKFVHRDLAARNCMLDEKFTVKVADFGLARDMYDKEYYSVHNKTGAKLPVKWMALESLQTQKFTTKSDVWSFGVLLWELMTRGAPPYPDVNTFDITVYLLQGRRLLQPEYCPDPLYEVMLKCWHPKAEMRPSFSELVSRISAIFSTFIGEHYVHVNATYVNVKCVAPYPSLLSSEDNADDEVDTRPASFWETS
T1 sequence (P08581 25-1390): as above

On to `Cn1cc(-c2ccc3nnc(Sc4ccc5nn(C)cc5c4)n3n2)cn1` [Example 1, 6-(1-Methyl-1H-pyrazol-4-yl)-3-(2-methyl-2H-indazol-5-ylthio)-[1,2,4]triazolo[4,3-b]pyridazine], for which the negative-log IC50 (pIC50) in assay [1] was 7.44. In addition, the inhibition at 16 mg/kg in assay [2] (16 mg/Kg dose, 2 h, experiment separate from head to head study, read-out: Single dose IVTI % inhibition after 2 h) came out at 98%. Further, the pEC50 in assay [2] (S114 tumors in nude mice, read-out: TEC50) is 6.74. Also, the inhibition at 8 mg/kg in assay [2] (S114 tumors, oral 8 mg/kg, 8 h, read-out: % phos-Met inhibition at 8 mg/kg after 8 h) came out at 75%. Besides, the inhibition at 20 mg/kg in assay [2] (S114 tumors, oral 20 mg/kg, 8 h, read-out: % phos-Met inhibition at 20 mg/kg after 8 h) was 93%. The compound also returned an ED50 in assay [2] (oral gavage, S114 tumors in nude mice) of 0.32 mg/kg.
